Data as given in US20040224910A1, “Recombinant nematode nicotinic receptor and uses” (priority 1999, published 2004).
Entries after “also recorded” stand apart in the source; their conditions may differ.

Target: T1, heterotrimeric UNC-63, UNC-29, LEV-1 receptor (Caenorhabditis elegans, UniProt P48181+Q27218+Q9N587)
T1 construct: used to generate a full length cDNA clone by 3′ RACE on Marathon cDNA; expressed in transfected cells; host or cells: Xenopus laevis oocytes (nuclear injection of pMT3 cDNA constructs)
T1 sequence (P48181 27-493): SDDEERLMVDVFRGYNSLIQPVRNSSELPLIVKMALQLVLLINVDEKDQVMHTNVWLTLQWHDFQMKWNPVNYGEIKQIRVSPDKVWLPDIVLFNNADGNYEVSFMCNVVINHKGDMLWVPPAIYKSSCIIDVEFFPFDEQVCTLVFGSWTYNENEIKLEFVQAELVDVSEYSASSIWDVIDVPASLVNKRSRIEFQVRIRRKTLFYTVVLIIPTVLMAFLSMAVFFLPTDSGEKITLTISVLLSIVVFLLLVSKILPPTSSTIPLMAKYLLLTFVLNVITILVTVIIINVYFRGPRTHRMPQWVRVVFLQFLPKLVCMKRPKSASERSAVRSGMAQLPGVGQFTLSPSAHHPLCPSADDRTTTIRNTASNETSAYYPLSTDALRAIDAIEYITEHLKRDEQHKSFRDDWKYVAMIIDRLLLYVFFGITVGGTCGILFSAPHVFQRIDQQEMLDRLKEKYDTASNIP
T1 sequence (Q27218 32-507): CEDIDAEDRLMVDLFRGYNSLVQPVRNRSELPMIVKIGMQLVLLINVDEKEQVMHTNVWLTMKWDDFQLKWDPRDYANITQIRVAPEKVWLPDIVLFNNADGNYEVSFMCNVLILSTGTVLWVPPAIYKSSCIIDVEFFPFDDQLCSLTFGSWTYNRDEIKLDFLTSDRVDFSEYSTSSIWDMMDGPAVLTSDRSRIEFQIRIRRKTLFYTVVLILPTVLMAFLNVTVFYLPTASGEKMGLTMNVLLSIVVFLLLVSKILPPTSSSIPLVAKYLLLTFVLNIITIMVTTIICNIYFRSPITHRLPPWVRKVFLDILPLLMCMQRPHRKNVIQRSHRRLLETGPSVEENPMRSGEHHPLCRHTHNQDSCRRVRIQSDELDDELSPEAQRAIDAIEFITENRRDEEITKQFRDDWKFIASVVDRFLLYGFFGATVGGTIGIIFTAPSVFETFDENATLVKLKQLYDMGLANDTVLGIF
T1 sequence (Q9N587 24-502): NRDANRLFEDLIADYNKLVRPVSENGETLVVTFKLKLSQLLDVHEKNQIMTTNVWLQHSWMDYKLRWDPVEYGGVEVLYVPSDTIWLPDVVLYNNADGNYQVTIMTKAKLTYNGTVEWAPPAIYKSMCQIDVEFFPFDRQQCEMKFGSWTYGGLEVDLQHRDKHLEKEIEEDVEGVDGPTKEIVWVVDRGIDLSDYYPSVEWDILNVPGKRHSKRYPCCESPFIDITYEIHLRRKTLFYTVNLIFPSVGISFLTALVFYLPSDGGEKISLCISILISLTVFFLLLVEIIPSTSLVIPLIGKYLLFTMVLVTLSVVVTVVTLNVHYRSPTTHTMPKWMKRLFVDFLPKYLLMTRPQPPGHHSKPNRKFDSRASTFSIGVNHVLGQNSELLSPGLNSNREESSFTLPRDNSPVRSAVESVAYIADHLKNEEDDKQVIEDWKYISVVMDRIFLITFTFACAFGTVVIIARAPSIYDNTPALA
Test: Two-electrode voltage-clamp of recombinant nAChR expressed in Xenopus laevis oocytes
Assay type: cell-based, C. elegans
Conditions: for agonist activity on the expressed receptor: holding potential -100 mV
Procedure: Ovaries were surgically removed from anaesthetised mature female Xenopus laevis. The follicle layers were manually removed from healthy stage V and VI oocytes following a 15 min incubation with collagenase (type IA, 2 mg ml^−1) in a calcium-free version of standard oocyte saline. The composition of SOS was as follows (mM): NaCl 100, KCl 2, CaCl2 1.8, MgCl2 1 and HEPES 5; pH 7.6. In calcium-free saline, the CaCl2 was replaced by 1.8 mM BaCl2. […] The nucleus of each oocyte was injected with 20 nl of DNA (0.1 μg μl^−1). The injected oocytes were transferred to incubation medium composed of SOS supplemented with penicillin (100 units ml^−1), streptomycin (100 μg ml^−1), gentamycin (50 μg ml^−1) and 2.5 mM sodium pyruvate and placed at 4° C. for 30 min immediately after injection to enable recovery. Oocytes were maintained at 16° C. for 2-4 days prior to electrophysiological studies.
Oocytes were restrained with entomological pins in a Perspex chamber (80 μl volume) with a Sylgard base and perfused continuously (5 ml min^−1) with SOS using a gravity-fed system. Membrane currents were measured by the two-electrode voltage-clamp method, using 3M KCl filled electrodes (resistance=0.5-5 MΩ) and either a Geneclamp amplifier (Axon Instruments). The oocyte membrane potential was clamped at −100 mV. Signals were digitized by a TL-1 interface (Axon Instruments, U.S.A).

SMILES | agonist activity on the expressed receptor (Xenopus oocytes) | block of the agonist action of levamisole (10 μM mecamylamine, Xenopus oocytes (FIG. 6)) | antagonism of ACh-induced currents (10 μM, Xenopus oocytes)
CC(=O)OCC[N+](C)(C)C.[Cl-] [ACh, Acetylcholine chloride] | full agonist | – | –
CNC1(C)C2CCC(C2)C1(C)C (centres unmarked) [Mecamylamine, mecamylamine] | – | blocked | effective antagonist
c1ccc([C@H]2CN3CCSC3=N2)cc1 [levamisole] | partial agonists; also recorded: partial agonist activity | – | –
CN1CCCC1c1cccnc1 (centres unmarked) [nicotine] | partial agonists; also recorded: partial agonist activity | – | –
